Reference: US20260325561A1, “4'-SUBSTITUTED NUCLEOSIDES AND NUCLEOTIDES AS ANTIVIRAL AGENTS” (THE SCRIPPS RESEARCH INSTITUTE, priority 2023, published 2026)

Key:
DENV-2 = assay: microbe, parasite or virus in culture; assay type: cell-based, DENV-2 16681; conditions: Dengue virus, DENV2, HepG2, 24 h, read-out: DENV-2 / HepG2 EC50
SARS-CoV-2 = assay: microbe, parasite or virus in culture; assay type: cell-based, SARS-CoV-2 strain USA-WA1/2020; conditions: Severe acute respiratory syndrome coronavirus 2, HeLa-ACE2, 24 h, read-out: SARS-CoV-2 / HeLa-ACE2 EC50
RSV A2 = assay: microbe, parasite or virus in culture; assay type: cell-based; conditions: human respiratory syncytial virus, HEp-2, 72 h, read-out: RSV A2 / Hep2 EC50
HRV 14 = assay: microbe, parasite or virus in culture; assay type: cell-based, Human Rhinovirus 14 strain 1059; conditions: Rhinovirus B, H1-HeLa, 48 h, read-out: HRV / H1 HeLa B 14 EC50
HRV 16 = assay: microbe, parasite or virus in culture; assay type: cell-based, Human Rhinovirus 16 strain 11757; conditions: Rhinovirus A, H1-HeLa, 48 h, read-out: HRV / H1 HeLa A16 EC50
in vitro [1] = conditions: human, hepg2 cells
in vitro [2] = conditions: human, hela-ace2 cells
in vitro [3] = conditions: human, hep2 cells
in vitro [4] = conditions: human, h1 hela cells

Structure (SMILES) | EC50 (DENV-2) [µM] | EC50 (SARS-CoV-2) [µM] | EC50 (RSV A2) [µM] | EC50 (HRV 14) [µM] | EC50 (HRV 16) [µM] | CC50 at 72 h (in vitro [1]) [µM] | CC50 at 24 h (in vitro [2]) [µM] | CC50 (in vitro [3]) [µM] | CC50 (in vitro [4]) [µM]
C[C@]1(O)[C@H](n2ccc3c(N)ncnc32)O[C@](F)(CO)[C@H]1O [Example 10, (2S,3S,4R,5R)-5-(4-amino-7H-pyrrolo[2,3-d]pyrimidin-7-yl)-2-fluoro-2-(hydroxymethyl)-4-methyltetrahydrofuran-3,4-diol] | > 10 | > 10 | > 10 | > 10 | > 10 | > 99 | > 99 | > 99 | > 99
C#Cc1nc(N)c2ncn([C@@H]3O[C@](F)(CO)[C@@H](O)[C@H]3O)c2n1 [Example 18, (2S,3S,4R,5R)-5-(6-amino-2-ethynyl-9H-purin-9-yl)-2-fluoro-2-(hydroxymethyl)tetrahydrofuran-3,4-diol] | > 10 | > 10 | > 10 | > 10 | > 10 | > 99 | > 99 | > 99 | > 99
OC[C@@]1(F)O[C@@H](n2ccc3cncnc32)[C@H](O)[C@@H]1O [Example 23, (2S,3S,4R,5R)-2-fluoro-2-(hydroxymethyl)-5-(7H-pyrrolo[2,3-d]pyrimidin-7-yl)tetrahydrofuran-3,4-diol] | 0.1 to 1 | 1 to 10 | 1 to 10 | 1 to 10 | 1 to 10 | 1 to 10 | 1 to 10 | 10 to 99 | 10 to 99
N#Cc1cn([C@@H]2O[C@](F)(CO)[C@@H](O)[C@H]2O)c2ncnc(N)c12 [Example 26, 4-amino-7-((2R,3R,4S,5S)-5-fluoro-3,4-dihydroxy-5-(hydroxymethyl)tetrahydrofuran-2-yl)-7H-pyrrolo[2,3-d]pyrimidine-5-carbonitrile] | < 0.1 | 0.1 to 1 | < 0.1 | > 10 | > 10 | < 1 | < 1 | < 1 | 1 to 10
Nc1nc(Cl)c2ccn([C@@H]3O[C@](F)(CO)[C@@H](O)[C@H]3O)c2n1 [Example 27, (2S,3S,4R,5R)-5-(2-amino-4-chloro-7H-pyrrolo[2,3-d]pyrimidin-7-yl)-2-fluoro-2-(hydroxymethyl)tetrahydrofuran-3,4-diol] | > 10 | > 10 | > 10 | > 10 | > 10 | 10 to 99 | 10 to 99 | 10 to 99 | 10 to 99
Cc1nc(Cl)c2ccn([C@@H]3O[C@](F)(CO)[C@@H](O)[C@H]3O)c2n1 [Example 29, (2S,3S,4R,5R)-5-(4-chloro-2-methyl-7H-pyrrolo[2,3-d]pyrimidin-7-yl)-2-fluoro-2-(hydroxymethyl)tetrahydrofuran-3,4-diol] | > 10 | > 10 | > 10 | > 10 | > 10 | > 99 | > 99 |  | > 99
NC(=O)c1cc([C@@H]2O[C@](F)(COC(=O)c3ccccc3)[C@@H](O)[C@H]2O)n2ncnc(N)c12 [Example 34, ((2S,3S,4R,5S)-5-(4-amino-5-carbamoylpyrrolo[2,1-f][1,2,4]triazin-7-yl)-2-fluoro-3,4-dihydroxytetrahydrofuran-2-yl)methyl benzoate] | 1 to 10 | > 10 | 0.1 to 1 | > 10 | > 10 | < 1 | 1 to 10 | < 1 | 1 to 10
COc1ncnc2c1ccn2[C@@H]1O[C@](F)(CO)[C@@H](O)[C@H]1O [Example 41, (2S,3S,4R,5R)-2-fluoro-2-(hydroxymethyl)-5-(4-methoxy-7H-pyrrolo[2,3-d]pyrimidin-7-yl)tetrahydrofuran-3,4-diol] | > 10 | > 10 | > 10 | > 10 | > 10 | 10 to 99 | 10 to 99 | 10 to 99 | 10 to 99
Nc1nc(Cl)nc2c1ncn2[C@@H]1O[C@](F)(CO)[C@@H](O)[C@H]1O [Example 43, (2S,3S,4R,5R)-5-(6-amino-2-chloro-9H-purin-9-yl)-2-fluoro-2-(hydroxymethyl)tetrahydrofuran-3,4-diol] | > 10 | > 10 | > 10 | > 10 | > 10 | 10 to 99 | > 99 | > 99 | 10 to 99
CC(C)OC(=O)[C@H](C)N[P@@](=O)(OC[C@@]1(F)O[C@@H](n2ccc3c(N)ncnc32)[C@H](O)[C@@H]1O)Oc1ccccc1 [Example 49, isopropyl ((R)-(((2S,3S,4R,5R)-5-(4-amino-7H-pyrrolo[2,3-d]pyrimidin-7-yl)-2-fluoro-3,4-dihydroxytetrahydrofuran-2-yl)methoxy)(phenoxy)phosphoryl)-L-alaninate] | 1 to 10 | > 10 |  | 1 to 10 | > 10 | > 99 | > 99 |  | > 99
C[C@]1(Cl)[C@H](n2cnc3c(=O)[nH]c(N)nc32)O[C@](F)(CO)[C@H]1O [Example 62, 2-amino-9-((2R,3R,4R,5S)-3-chloro-5-fluoro-4-hydroxy-5-(hydroxymethyl)-3-methyltetrahydrofuran-2-yl)-1,9-dihydro-6H-purin-6-one] | 0.1 to 1 | > 10 | > 10 | > 10 |  | 10 to 99 | > 99 | 10 to 99 | 10 to 99
CCOc1nc(N)nc2c1ncn2[C@@H]1O[C@](F)(COP(=O)(N[C@@H](C)C(=O)OC(C)C)Oc2ccccc2)[C@@H](O)[C@@]1(C)Cl (stereo partly drawn) [Example 64, isopropyl ((((2S,3R,4R,5R)-5-(2-amino-6-ethoxy-9H-purin-9-yl)-4-chloro-2-fluoro-3-hydroxy-4-methyltetrahydrofuran-2-yl)methoxy)(phenoxy)phosphoryl)-L-alaninate] | 1 to 10 | > 10 | > 10 | > 10 |  | 10 to 99 | 10 to 99 | 10 to 99 | 10 to 99
C[C@H](NP(=O)(OC[C@@]1(F)O[C@@](C#N)(c2cnc3c(N)ncnn23)[C@H](O)[C@@H]1O)Oc1cccc2ccccc12)C(=O)OCC(C)(C)C (stereo partly drawn) [Example 65, neopentyl ((((2S,3S,4R,5R)-5-(4-aminoimidazo[2,1-f][1,2,4]triazin-7-yl)-5-cyano-2-fluoro-3,4-dihydroxytetrahydrofuran-2-yl)methoxy)(naphthalen-1-yloxy)phosphoryl)-L-alaninate] | 1 to 10 | 1 to 10 | > 10 | > 10 |  | 1 to 10 | 10 to 99 | 10 to 99 | 10 to 99
CCOc1nc(N)nc2c1ncn2[C@@H]1O[C@](F)(CO[P@@](=O)(N[C@@H](C)C(=O)OC(C)C)Oc2ccccc2)[C@@H](O)[C@]1(F)Cl [Example 67, isopropyl ((((2S,3R,4S,5R)-5-(2-amino-6-ethoxy-9H-purin-9-yl)-4-chloro-2,4-difluoro-3-hydroxytetrahydrofuran-2-yl)methoxy)(phenoxy)phosphoryl)-L-alaninate] | 1 to 10 | > 10 | > 10 | 1 to 10 |  | 10 to 99 | 10 to 99 | 10 to 99 | 10 to 99
CCOc1nc(N)nc2c1ncn2[C@@H]1O[C@](F)(CO)[C@@H](O)[C@]1(F)Br [Example 68, (2S,3R,4S,5R)-5-(2-amino-6-ethoxy-9H-purin-9-yl)-4-bromo-2,4-difluoro-2-(hydroxymethyl)tetrahydrofuran-3-ol] | > 10 | > 10 | > 10 | > 10 |  | 10 to 99 | > 99 | 10 to 99 | 10 to 99
C#C[C@]1(O)[C@H](n2ccc3c(NCCC)ncnc32)O[C@](F)(CO)[C@H]1O [Example 70, (2S,3S,4R,5R)-4-ethynyl-2-fluoro-2-(hydroxymethyl)-5-(4-(propylamino)-7H-pyrrolo[2,3-d]pyrimidin-7-yl)tetrahydrofuran-3,4-diol] | > 10 | > 10 | > 10 | > 10 |  | 10 to 99 | > 99 | 10 to 99 | 10 to 99
CSc1ncnc2c1ccn2[C@@H]1O[C@](F)(CO)[C@@H](O)[C@H]1O [Example 72, (2S,3S,4R,5R)-2-fluoro-2-(hydroxymethyl)-5-(4-(methylthio)-7H-pyrrolo[2,3-d]pyrimidin-7-yl)tetrahydrofuran-3,4-diol] | 1 to 10 | 1 to 10 | > 10 | > 10 |  | 10 to 99 | 10 to 99 | 10 to 99 | > 99
